Experimental data published in patent publication US6936634B2, “Ruthenium (II) compounds for use in the therapy of cancer” (The University Court, The University of Edinburgh (UK), priority 2000, dated 2005).
Where two headings read alike, the source gives them in different places.

Experiments:
Type in all cases: cell-based
[1] = tested on: A2780 ovarian cancer cell line; assay: Cell growth inhibition, A2780 ovarian cancer cell line
Description: (§1) The compounds are tested on 24 -well trays. Cells growing in a flask are harvested just before they become confluent, counted using a haemocytometer and diluted down with media to a concentration of 1×10^4 cells per ml. The cells are then seeded in the 24 -well trays at a density of […] (i.e. 1 ml of the diluted cell suspension is added to each well). The cells are then left to plate down and grow for 72 hours before adding the compounds of the invention.
(§2) The Ru complexes are weighed out and made up to a concentration of is 1 mg/ml with deionised water then sonicated, until they go into solution. The appropriate volume of the Ru solution is added to 5 ml of media to make it up to a concentration of 100 μM for each drug. This 100 μM solution is then serially diluted to make up the 10 μM, 1 μM and 0.1 μM solutions.
(§3) The media is removed from the cells and replaced with 1 ml of the media dosed with drug. Each concentration is done in duplicate. A set of control wells are left on each plate, containing media without drug.
(§4) The cells are left exposed to the drugs for 24 hours and then washed with phosphate buffered saline before fresh media is added.
(§5) They are allowed to grow on for a further 3 days before being counted using a Coulter counter.
(§6) • Media is removed and 1 ml of PBS is added to the cells. • 250 μl of trypsin is added and cells left in incubator for a few minutes to allow the monolayers to detach. • Once trypsinised, 250 μl of media is added to each well to neutralise the trypsin. 200 μl of this suspension is added to 10 ml of NaCl for counting. 2. Results
Using the above protocol, a number of compounds of the invention were tested on A2780 ovarian cancer cell line.

[2] = tested on: A2780 AD, variant of A2780 showing resistance to adriomycin; assay: Cell growth inhibition, A2780 AD (adriomycin resistant variant); settings: multidrug resistant, over expresses p glycoprotein, 24 hours exposure
Description: as §1, §2, §3, §4, §5, §6
(§7) The experiments were repeated to investigate the effect of the compounds of the invention on drag-resistant variants of the A2780 cell line.

[3] = tested on: A2780 cis, variant of A2780 showing resistance to cis-platin; assay: Cell growth inhibition, A2780 cis (cis-platin resistant variant); settings: 24 hours exposure
Description: as §1, §2, §3, §4, §5, §6, §7

[4] = A2780, repeated experiments with drug-resistant variants, 24 hours exposure, read-out: IC50 A2780
[5] = A2780 ovarian cancer cell line, 24 hours drug exposure, counted after a further 3 days, first experiment, read-out: IC50

| Molecule | IC50 [1, 4] | IC50 [1, 5] | IC50 [2] | IC50 [3] |
| --- | --- | --- | --- | --- |
| F[P-](F)(F)(F)(F)F.NCCN.[Cl][Ru+].c1ccc2c(c1)Cc1ccccc1C2 [Example 4, [η^6-C14H12)RuCl(en)]^+PF6−] | 2 µM | 0.3 µM | 104 µM | 16 µM |
| [Cl][Ru][Cl].c1ccc2c(c1)Cc1ccccc1C2 [Example 5, [(η^6-C14H12)RuCl2(DMSO)]] | 126 µM | 68 µM | 5 µM | 2 µM |
| CC#N.CC#N.F[P-](F)(F)(F)(F)F.[Cl][Ru+].c1ccc2c(c1)Cc1ccccc1C2 [Example 6, [(η^6-C14H12)RuCl(CH3CN)2]^+PF6^−] | 192 µM | 315 µM | 0.9 µM | 2 µM |
| C1=CCC2=C(C1)Cc1ccccc1C2.F[P-](F)(F)(F)(F)F.NCCN.[Cl][Ru+] [Example 1, [(η^6-C14H14)RuCl(en)]^+PF6] | 0.5 µM | 0.5 µM | 328 µM | 1 µM |
| {[(η^6-C14H14)RuCl]2[H2N(CH2)2NH(CH2)6NH(CH2)2NH2−N,N′N″,N′″]}^2+.2PF6^− [Example 7] | – | 6 µM | – | – |
| C1=CCC2=C(C1)Cc1ccccc1C2.[Cl][Ru][Cl] [Example 2, [(η^6-C14H14)RuCl2(DMSO)]] | 94 µM | 94 µM | 4 µM | 493 µM |
| C1=CCC2=C(C1)Cc1ccccc1C2.CC#N.CC#N.F[P-](F)(F)(F)(F)F.[Cl][Ru+] [Example 3, [(η^6-C14H14)RuCl(CH3CN)2]^+PF6^−] | 116 µM | 177 µM | 2 µM | 2 µM |
